# Test results from ChEMBL document CHEMBL1201862, “PubChem BioAssay data set” (2004).
#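 Growth conditions: 96-well plates. Treatment: test compound, 48 hours, 5 concentrations. Analysis: linear interpolation between bracketing concentrations; unreached endpoints set to highest concentration. Here, GI50 denotes the concentration required for 50% inhibition of growth.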 The source made the active and inactive calls. Cut-off read from the data, not from the text of the source: active = GI50 up to about 1.1 µM and inactive = higher.
# Legend:
# Assay in all cases: NCI tumour cell line growth inhibition, 48 h
# [1] = tested on: UACC-257
# [2] = tested on: SK-MEL-28
# [3] = tested on: EKVX
# [4] = tested on: M14
# [5] = tested on: KM12
# [6] = tested on: A549
# [7] = tested on: TK-10
# [8] = tested on: SN12C
# [9] = tested on: OVCAR-8
# [10] = tested on: SW-620
# [11] = tested on: COLO 205
# [12] = tested on: LOX IMVI
# [13] = tested on: CCRF-CEM
# [14] = tested on: HCT-116
# [15] = tested on: A498
# [16] = tested on: OVCAR-5
# [17] = tested on: HCC 2998
# [18] = tested on: MOLT-4
# [19] = tested on: NCI-H226
# [20] = tested on: SNB-78
# [21] = tested on: SF-539
# [22] = tested on: U-251
# [23] = tested on: SF-295
# [24] = tested on: SK-MEL-5
# [25] = tested on: HOP-18
# [26] = tested on: CAKI-1
# [27] = tested on: HL-60
# [28] = tested on: RXF 393
# [29] = tested on: DMS-114
# [30] = tested on: IGROV-1
# [31] = tested on: RXF 631
# [32] = tested on: SNB-19
# [33] = tested on: HOP-92
# [34] = tested on: Malme-3M
# [35] = tested on: SK-MEL-2
# [36] = tested on: RPMI-8226
# [37] = tested on: HT-29
# [38] = tested on: ACHN
# [39] = tested on: K562
# [40] = tested on: NCI-H460
# [41] = tested on: SR
# [42] = tested on: NCI-H23
# [43] = tested on: DMS-273
# [44] = tested on: LXFL 529
# [45] = tested on: SF-268
# [46] = tested on: OVCAR-4
# [47] = tested on: HCT-15
# [48] = tested on: DLD-1
# [49] = tested on: XF498
# [50] = tested on: SNB-75
# [51] = tested on: HOP-62
# [52] = tested on: UO-31
# [53] = tested on: UACC-62
# [54] = tested on: 786-0
# [55] = tested on: NCI-H522
# [56] = tested on: SK-OV-3
# [57] = tested on: OVCAR-3
structure (smiles),measurement,setting,value
C=C=CC(NC(=O)c1ccccc1)(C(=O)O)C(F)(F)F (configuration not stated),GI50,[1],> 100 µM (inactive)
same,GI50,[2],> 100 µM (inactive)
same,GI50,[3],> 100 µM (inactive)
same,GI50,[4],> 100 µM (inactive)
same,GI50,[5],> 100 µM (inactive)
same,GI50,[6],> 100 µM (inactive)
same,GI50,[7],> 100 µM (inactive)
same,GI50,[8],> 100 µM (inactive)
same,GI50,[9],> 100 µM (inactive)
same,GI50,[10],> 100 µM (inactive)
same,GI50,[11],> 100 µM (inactive)
same,GI50,[12],> 100 µM (inactive)
same,GI50,[13],> 100 µM (inactive)
same,GI50,[14],> 100 µM (inactive)
same,GI50,[15],> 100 µM (inactive)
same,GI50,[16],> 100 µM (inactive)
same,GI50,[17],> 100 µM (inactive)
same,GI50,[18],> 100 µM (inactive)
same,GI50,[19],> 100 µM (inactive)
same,GI50,[20],> 100 µM (inactive)
same,GI50,[21],> 100 µM (inactive)
same,GI50,[22],> 100 µM (inactive)
same,GI50,[23],> 100 µM (inactive)
same,GI50,[24],> 100 µM (inactive)
same,GI50,[25],> 100 µM (inactive)
same,GI50,[26],> 10 µM (inactive)
same,GI50,[27],> 100 µM (inactive)
same,GI50,[28],> 100 µM (inactive)
same,GI50,[29],> 100 µM (inactive)
same,GI50,[30],> 100 µM (inactive)
same,GI50,[31],> 100 µM (inactive)
same,GI50,[32],> 100 µM (inactive)
same,GI50,[33],> 100 µM (inactive)
same,GI50,[34],> 100 µM (inactive)
same,GI50,[35],> 100 µM (inactive)
same,GI50,[36],> 100 µM (inactive)
same,GI50,[37],> 100 µM (inactive)
same,GI50,[38],> 100 µM (inactive)
same,GI50,[39],> 100 µM (inactive)
same,GI50,[40],> 100 µM (inactive)
same,GI50,[41],> 100 µM (inactive)
same,GI50,[42],> 100 µM (inactive)
same,GI50,[43],> 100 µM (inactive)
same,GI50,[44],> 100 µM (inactive)
same,GI50,[45],> 100 µM (inactive)
same,GI50,[46],> 10 µM (inactive)
same,GI50,[47],> 100 µM
same,GI50,[48],> 100 µM (inactive)
same,GI50,[49],> 100 µM (inactive)
same,GI50,[50],> 100 µM (inactive)
C[C@]12CC[C@H](O)CC1CCC[C@@H]2O (some centres not stated),GI50,[1],> 100 µM (inactive)
same,GI50,[2],> 100 µM (inactive)
same,GI50,[3],> 100 µM (inactive)
same,GI50,[4],> 100 µM (inactive)
same,GI50,[5],> 100 µM (inactive)
same,GI50,[6],> 100 µM (inactive)
same,GI50,[7],> 100 µM (inactive)
same,GI50,[8],> 100 µM (inactive)
same,GI50,[9],> 100 µM (inactive)
same,GI50,[10],> 100 µM (inactive)
same,GI50,[11],> 100 µM (inactive)
same,GI50,[12],> 100 µM (inactive)
same,GI50,[51],> 100 µM (inactive)
same,GI50,[52],> 100 µM (inactive)
same,GI50,[13],> 100 µM (inactive)
same,GI50,[14],> 100 µM (inactive)
same,GI50,[15],> 100 µM (inactive)
same,GI50,[17],> 100 µM (inactive)
same,GI50,[18],> 100 µM (inactive)
same,GI50,[20],> 100 µM (inactive)
same,GI50,[53],> 100 µM (inactive)
same,GI50,[21],> 100 µM (inactive)
same,GI50,[54],> 100 µM (inactive)
same,GI50,[22],> 100 µM (inactive)
same,GI50,[23],> 100 µM (inactive)
same,GI50,[24],> 100 µM (inactive)
same,GI50,[26],> 100 µM (inactive)
same,GI50,[27],> 100 µM (inactive)
same,GI50,[28],> 100 µM (inactive)
same,GI50,[29],> 100 µM (inactive)
same,GI50,[30],> 100 µM (inactive)
same,GI50,[31],> 100 µM (inactive)
same,GI50,[32],> 100 µM (inactive)
same,GI50,[33],> 100 µM (inactive)
same,GI50,[34],> 100 µM (inactive)
same,GI50,[35],> 100 µM (inactive)
same,GI50,[36],> 100 µM (inactive)
same,GI50,[37],> 100 µM (inactive)
same,GI50,[39],> 100 µM (inactive)
same,GI50,[40],> 100 µM (inactive)
same,GI50,[42],> 100 µM (inactive)
same,GI50,[43],> 100 µM (inactive)
same,GI50,[55],> 100 µM (inactive)
same,GI50,[44],> 100 µM (inactive)
same,GI50,[56],> 100 µM (inactive)
same,GI50,[45],> 100 µM (inactive)
same,GI50,[46],> 100 µM (inactive)
same,GI50,[57],> 100 µM (inactive)
same,GI50,[47],> 100 µM
same,GI50,[48],> 100 µM (inactive)
same,GI50,[49],> 100 µM (inactive)
same,GI50,[50],> 100 µM (inactive)
